{"source": "patent EP3064205A1", "about": "“Therapeutic use of isomeric forms of 2-(4-chlorophenyl)quinolin-4-yl)(piperidin-2-yl)methanol” (Glionova AB, priority 2015, dated 2016)", "assay_in_all_cases": "3D clonogenic assay (PDX)", "assay_type_in_all_cases": "cell-based, human", "key": {"GXA 3044": {"tested_on": "GXA 3044", "conditions": "GXA 3044, Asian Gastric; for IC50: Homo sapiens", "procedure": "(§1) The anti-tumor efficacy of S1 in the patient-derived tumor xenograft (PDX) tumor panel was assessed, where the efficacy of S1 in PDX tumor panel in the 96-well format, in 10 concentrations in duplicate was performed. Colony formation of tumor cell suspensions in a soft-agar matrix was observed and quantified. The output is IC50 values and dose response-relationships based on number of colonies in control and treatment wells, as identified by an automated image analysis algorithm. Stock solution of S1 was prepared in 100% DMSO at 10 mM concentration (stored at -20°C) and reused for each experiment. Compound final test concentrations: Dilution series ½ i.e.: 50µM, 15, 5, 1.5, 0.5, 0.15, 0.05, 0.015, 0.005 and 0.0015.\n(§2) Tumor xenografts (also referred to as patient-derived tumor xenografts) were passaged as subcutaneous xenografts in NMRI nu/nu mice. Tumor xenograft were removed from mice under sterile conditions, mechanically disaggregated and subsequently incubated with an enzyme cocktail consisting of collagenase type IV (41 U/mL), DNase I (125 U/mL), hyaluronidase type III (100 U/mL) and dispase II (1.0 U/mL) in RPMI 1640 medium at 37°C for 60 - 120 minutes. Cells were passed through sieves of 100 µm and 40 µm mesh size and washed with RPMI 1640 medium. The percentage of viable cells was determined in a Neubauer-hemocytometer using trypan blue exclusion. Aliquots of the cells were frozen down, and stored in liquid nitrogen.\n(§3) The clonogenic assay test was carried out in 96 well plate format. For each test a frozen aliquot of tumor cells prepared from tumor xenografts was thawed and assay plates were prepared as follows: each test well contained 3 layers of equal volume, 2 layers of semi-solid medium (bottom and top layer), and one layer of medium supernatant, with or without test compound. The bottom layer consisted of 0.05 mL/well Iscove's Modified Dulbecco's Medium (Invitrogen), supplemented with 20% (v/v) fetal calf serum (Sigma), 0.01% (w/v) gentamicin (Invitrogen) and 0.75% (w/v) agar (BD Biosciences). Tumor cells were added to 0.05 mL of the same culture medium supplemented with 0.4% (w/v) agar and plated onto the bottom layer. After 24 h, test compounds were added after serial dilution in DMSO and transfer in cell culture medium, and left on the cells for the duration of the experiment (continuous exposure, 0.05 mL drug overlay). Every dish included six untreated control wells and drug-treated groups in duplicate at 10 concentrations. Cultures were incubated at 37 °C and 7.5% CO2 in a humidified atmosphere for 8 to 13 days and monitored closely for colony growth using an inverted microscope. Within this period, ex vivo tumor growth lead to the formation of colonies with a diameter of >50 µm. At the time of maximum colony formation, counts were performed with an automatic image analysis system. 24 h prior to evaluation, vital colonies were stained with a sterile aqueous solution of 2-(4-iodophenyl)-3-(4-nitrophenyl)-5-phenyltetrazolium chloride (1 mg/mL, 100 µL/well). Sigmoidal concentration-response curves were fitted to the data points obtained for each tumor model using 4 parameter non-linear curve fit (Oncotest Warehouse Software). IC50 values are reported as relative IC50 values, being the concentration of test compound that give a response (inhibition of colony formation/viability) half way between the top and bottom plateau of the sigmoidal concentration-response curve (inflection point of the curve), or as absolute IC50 values, being the concentration of test compound at the intersection of the concentration-response curves with T/C = 50%. For calculation of mean IC50 values the geometric mean was used. Results are presented as mean graph plots or heat maps (individual IC50 values relative to the geometric mean IC50 value) over all cell lines as tested."}, "GXF 97": {"tested_on": "GXF 97", "conditions": "GXF 97, Gastric; for IC50: Homo sapiens", "procedure": "as §1, §2, §3"}, "LXFL 430": {"tested_on": "LXFL 430", "conditions": "LXFL 430, Lung Large Cell; for IC50: Homo sapiens", "procedure": "as §1, §2, §3"}, "OVXF 1023": {"tested_on": "OVXF 1023", "conditions": "OVXF 1023, Ovarian; for IC50: Homo sapiens, OVXF1023", "procedure": "as §1, §2, §3"}, "PRXF PC-3M": {"tested_on": "PRXF PC-3M", "conditions": "Prostate; for IC50: Homo sapiens", "procedure": "as §1, §2, §3"}, "MEXF 276": {"tested_on": "MEXF 276", "conditions": "MEXF 276, Melanoma; for IC50: Homo sapiens", "procedure": "as §1, §2, §3"}, "MEXF 672": {"tested_on": "MEXF 672", "conditions": "MEXF 672, Melanoma; for IC50: Homo sapiens", "procedure": "as §1, §2, §3"}, "LXFA 1584": {"tested_on": "LXFA 1584", "conditions": "LXFA 1584, Lung Adeno; for IC50: Homo sapiens", "procedure": "as §1, §2, §3"}, "LXFA 526": {"tested_on": "LXFA 526", "conditions": "LXFA 526, Lung Adeno; for IC50: Homo sapiens", "procedure": "as §1, §2, §3"}, "BXF 1036": {"tested_on": "BXF 1036", "conditions": "BXF 1036, Bladder; for IC50: Homo sapiens", "procedure": "as §1, §2, §3"}, "SXFS 627": {"tested_on": "SXFS 627", "conditions": "SXFS 627, Sarcoma Soft Tissue; for IC50: Homo sapiens", "procedure": "as §1, §2, §3"}, "BXF 1228": {"tested_on": "BXF 1228", "conditions": "BXF 1228, Bladder; for IC50: Homo sapiens", "procedure": "as §1, §2, §3"}}, "note": "Where two headings read alike, the source gives them in different places.", "data": [{"smiles": "O[C@H](c1cc(-c2ccc(Cl)cc2)nc2ccccc12)[C@@H]1CCCCN1", "note": "[S1, (R)-(2-(4-chlorophenyl)quinolin-4-yl)((S)-piperidin-2-yl)methanol]", "values": [{"measurement": "b (bottom plateau of concentration-effect curve)", "setting": "GXA 3044", "result": 15}, {"measurement": "t (top plateau of concentration-effect curve)", "setting": "GXA 3044", "result": 101}, {"measurement": "IC50", "setting": "GXA 3044; read-out: abs. IC50", "result": 9.08, "unit": "µM"}, {"measurement": "IC50", "setting": "GXA 3044; read-out: rel. IC50", "result": 8.95, "unit": "µM"}, {"measurement": "b (bottom plateau of concentration-effect curve)", "setting": "GXF 97", "result": 20}, {"measurement": "t (top plateau of concentration-effect curve)", "setting": "GXF 97", "result": 97}, {"measurement": "IC50", "setting": "GXF 97; read-out: abs. IC50", "result": 6.21, "unit": "µM"}, {"measurement": "IC50", "setting": "GXF 97; read-out: rel. IC50", "result": 5.71, "unit": "µM"}, {"measurement": "IC50", "setting": "LXFL 430; read-out: abs. IC50", "result": 9.06, "unit": "µM"}, {"measurement": "IC50", "setting": "LXFL 430; read-out: rel. IC50", "result": 8.98, "unit": "µM"}, {"measurement": "b (bottom plateau of concentration-effect curve)", "setting": "LXFL 430", "result": 14}, {"measurement": "t (top plateau of concentration-effect curve)", "setting": "LXFL 430", "result": 99}, {"measurement": "IC50", "setting": "OVXF 1023; read-out: abs. IC50", "result": 7.49, "unit": "µM"}, {"measurement": "IC50", "setting": "OVXF 1023; read-out: rel. IC50", "result": 6.84, "unit": "µM"}, {"measurement": "b (bottom plateau of concentration-effect curve)", "setting": "OVXF 1023", "result": 11}, {"measurement": "t (top plateau of concentration-effect curve)", "setting": "OVXF 1023", "result": 100}, {"measurement": "IC50", "setting": "PRXF PC-3M; read-out: abs. IC50", "result": 16.9, "unit": "µM"}, {"measurement": "IC50", "setting": "PRXF PC-3M; read-out: rel. IC50", "result": 16.9, "unit": "µM"}, {"measurement": "b (bottom plateau of concentration-effect curve)", "setting": "PRXF PC-3M", "result": 3}, {"measurement": "t (top plateau of concentration-effect curve)", "setting": "PRXF PC-3M", "result": 98}, {"measurement": "IC50", "setting": "MEXF 276; read-out: abs. IC50", "result": 4.73, "unit": "µM"}, {"measurement": "IC50", "setting": "MEXF 276; read-out: rel. IC50", "result": 4.65, "unit": "µM"}, {"measurement": "b (bottom plateau of concentration-effect curve)", "setting": "MEXF 276", "result": 15}, {"measurement": "t (top plateau of concentration-effect curve)", "setting": "MEXF 276", "result": 95}, {"measurement": "IC50", "setting": "MEXF 672; read-out: abs. IC50", "result": 8.96, "unit": "µM"}, {"measurement": "IC50", "setting": "MEXF 672; read-out: rel. IC50", "result": 8.56, "unit": "µM"}, {"measurement": "b (bottom plateau of concentration-effect curve)", "setting": "MEXF 672", "result": 39}, {"measurement": "t (top plateau of concentration-effect curve)", "setting": "MEXF 672", "result": 96}, {"measurement": "IC50", "setting": "LXFA 1584; read-out: abs. IC50", "result": 7.81, "unit": "µM"}, {"measurement": "IC50", "setting": "LXFA 1584; read-out: rel. IC50", "result": 6.79, "unit": "µM"}, {"measurement": "b (bottom plateau of concentration-effect curve)", "setting": "LXFA 1584", "result": 31}, {"measurement": "t (top plateau of concentration-effect curve)", "setting": "LXFA 1584", "result": 95}, {"measurement": "IC50", "setting": "LXFA 526; read-out: abs. IC50", "result": 3.23, "unit": "µM"}, {"measurement": "IC50", "setting": "LXFA 526; read-out: rel. IC50", "result": 2.91, "unit": "µM"}, {"measurement": "b (bottom plateau of concentration-effect curve)", "setting": "LXFA 526", "result": 10}, {"measurement": "t (top plateau of concentration-effect curve)", "setting": "LXFA 526", "result": 96}, {"measurement": "b (bottom plateau of concentration-effect curve)", "setting": "BXF 1036", "result": 30}, {"measurement": "t (top plateau of concentration-effect curve)", "setting": "BXF 1036", "result": 95}, {"measurement": "IC50", "setting": "BXF 1036; read-out: abs. IC50", "result": 5.3, "unit": "µM"}, {"measurement": "IC50", "setting": "BXF 1036; read-out: rel. IC50", "result": 5, "unit": "µM"}, {"measurement": "IC50", "setting": "SXFS 627; read-out: abs. IC50", "result": 5.84, "unit": "µM"}, {"measurement": "IC50", "setting": "SXFS 627; read-out: rel. IC50", "result": 5.74, "unit": "µM"}, {"measurement": "b (bottom plateau of concentration-effect curve)", "setting": "SXFS 627", "result": 7}, {"measurement": "t (top plateau of concentration-effect curve)", "setting": "SXFS 627", "result": 96}, {"measurement": "b (bottom plateau of concentration-effect curve)", "setting": "BXF 1228", "result": 22}, {"measurement": "t (top plateau of concentration-effect curve)", "setting": "BXF 1228", "result": 98}, {"measurement": "IC50", "setting": "BXF 1228; read-out: abs. IC50", "result": 8.12, "unit": "µM"}, {"measurement": "IC50", "setting": "BXF 1228; read-out: rel. IC50", "result": 6.67, "unit": "µM"}]}]}
